Experiments:
[1] = background statement; cited from earlier work
[2] = system: TERA-2 cells; test: Flow cytometry, early neuronal marker A2B5; type: cell-based
From the text: ATRA treated cells express higher levels of A2B5 followed by EC23® and compound 9.

[3] = system: TERA-2 cells; test: Immunocytochemical staining for Sox 2; type: cell-based; settings: 1 and 10 μM
[4] = system: TERA-2 cells; test: Immunocytochemical staining for nestin; type: cell-based
[5] = system: TERA-2 cells; test: Immunocytochemical staining for TUJ-1; type: cell-based; settings: for TUJ-1 staining: 1 and 10 μM
From the text: DMSO treated cells show only limited TUJ-1 staining.

[6] = system: TERA-2 cells; test: Flow cytometry, stem cell marker SSEA-3; type: cell-based; settings: for expression of SSEA-3 compared to DMSO treated cells: flow cytometry
[7] = background statement; cited from earlier work; remark: listed apart in the source
[8] = system: TERA-2 cells; test: Immunocytochemical staining for Oct 4; type: cell-based
[9] = system: cell populations; test: Phase contrast images of treated cell populations; type: cell-based
From the text: In cell populations treated with DMSO, the cells are small, and densely packed together.

[10] = system: TERA-2 cells; test: Flow cytometry, stem cell marker TRA160; type: cell-based; settings: for expression of TRA160 compared to DMSO treated cells: flow cytometry
[11] = system: cells; test: MTT cell viability analysis; type: cell-based; settings: compared to DMSO
[12] = system: TERA-2 cells; test: Immunocytochemical staining for cytokeratin 8 (CK8); type: cell-based; settings: 10 μM vs 1 μM
[13] = Light stability of compound 9 by 1H NMR under standard laboratory light; type: physicochemical
Protocol: A ^1H NMR spectrum of compound 9 in DMSO-d6 was recorded after storage at ambient temperature in the absence of light (FIG. 7). The same sample of compound 9 was then exposed to standard laboratory light at a distance of 30 cm for 72 hours, and the ^1H NMR spectrum recorded (FIG. 8). Compound 9 is stable towards typical laboratory lighting over this time period, although a small proportion converts to a structurally similar enamine form. Compound 9 remains stable until around 16 day's exposure, where some indication of degradation becomes apparent. More significant degradation is observed after 22 day's exposure, although compound 9 still represents the major constituent of the sample (>60%).

[14] = Initial fluorescence characterisation (absorption and emission spectra in solvents); type: physicochemical
From the text: Absorption and emission spectra of 9 were obtained in a variety of solvents (FIG. 3 and FIG. 4). […] The fluorescence emission wavelength is also highly dependent on solvent polarity, with a significant red shift occurring in polar solvents when compared to non polar solvents.
This absorption band peaks at around 379 nm, and trails into the indigo/blue (440 nm).

[15] = Stability on exposure to light of wavelength 300 to 400 nm; type: physicochemical; settings: 3 days exposure to light of wavelength 300 to 400 nm
From the text: Retinoid compounds such as ATRA are unstable upon storage. In particular, such compounds are susceptible to photoisomerisation and degradation upon exposure to light in the 300 to 400 nm region. […] Generally the compounds of formula 1 have far better stability than retinoids such as ATRA, in particular the compounds of formula 1 are far less susceptible to photoisomerisation. Generally, following 3 days exposure to light having a wavelength of 300 to 400 nm, the compounds of the present invention undergo far less isomerisation and degradation than ATRA. Typically at least 60% by weight of the compounds of the present invention remain (compared to less than 40% by weight ATRA) following 3 days exposure to light of wavelength 300 to 400 nm.

[16] = 1 M treatment (so in the source)
[17] = both 1 and 10 M treatments (so in the source)

Structure (SMILES) | stability on exposure to light [1] | expression of A2B5 compared to DMSO treated cells [2] | Sox 2 staining compared to DMSO treated cells [3] | nestin staining ([4]; 10 μM treatment) | nestin staining [4, 16] | TUJ-1 staining with 10 μM treatment relative to 1 μM [5] | TUJ-1 staining [5] | expression of SSEA-3 compared to DMSO treated cells [6] | Oct 4 staining ([8]; 1 μM) | Oct 4 staining ([8]; 10 μM) | cell population appearance in contrast to DMSO (small, densely packed) [9] | expression of TRA160 compared to DMSO treated cells [10] | MTT cell viability ([11]; 1 μM treatment) | MTT cell viability ([11]; 10 μM treatment) | CK8 staining intensity in 10 μM samples compared with 1 μM samples [12] | also measured
CC1(C)CCC(C)(C)c2cc(C#Cc3ccc(C(=O)O)cc3)ccc21 [EC23®] | good stability | significantly increased | significantly reduced staining | positive for nestin with staining possibly to a lesser extent | positive for nestin | increased staining | significant staining | significantly decreased | do not exhibit staining | do not exhibit staining | less dense, and cells are much more spread out | significantly decreased | comparable viability to DMSO | comparable viability to DMSO | less intense | susceptibility to metabolic degradation [7]: not be susceptible
CC(C)N1CCC(C)(C)c2cc(C#Cc3ccc(C(=O)O)cc3)ccc21 [compound 9, 4-2-[4,4-Dimethyl-1-(propan-2-yl)-1,2,3,4-tetrahydroquinolin-6-yl]ethynylbenzoic acid] |  | significantly increased | significantly reduced staining | positive for nestin with staining possibly to a lesser extent | positive for nestin | increased staining | significant staining | significantly decreased | do not exhibit staining | do not exhibit staining | less dense, and cells are much more spread out | significantly decreased | comparable viability to DMSO | comparable viability to DMSO | slightly brighter | exposure time until which compound remains stable (first indication of degradation) ([13]; DMSO-d6, standard laboratory light): around 16 day; stability towards typical laboratory lighting ([13]; DMSO-d6, standard laboratory light at 30 cm, 72 hours, ambient temperature): stable; share of the sample still compound 9 (major constituent) ([13]; after 22 day's exposure to laboratory light): > 60%; level of SSEA-3 relative to ATRA and EC23 [6, 17]: higher levels; lowest concentration at which fluorescence was easily detected ([14]; in solvents): 1 nM; level of TRA160 relative to ATRA and EC23 [10, 17]: slightly higher levels
CC1=CC(C)(C)c2cc(C#Cc3ccc(C(=O)O)cc3)ccc2N1C(C)C [compound 17, 4-2-[2,4,4-Trimethyl-1-(propan-2-yl)-1,4-dihydroquinolin-6-yl]ethynyl benzoic acid] |  |  |  |  |  |  |  |  |  |  |  |  |  |  |  | peak of maximal absorption band ([14]; chloroform (FIG. 5)): around 379 nm
CC1=C(/C=C/C(C)=C/C=C/C(C)=C/C(=O)O)C(C)(C)CCC1 [ATRA, All Trans-Retinoic Acid] | poor stability | significantly increased | significantly reduced staining | positive for nestin | positive for nestin | increased staining | significant staining | significantly decreased | staining is also evident | do not exhibit staining | less dense, and cells are much more spread out | significantly decreased | comparable viability to DMSO | comparable viability to DMSO | less intense | amount of compound remaining [15]: less than 40 % by weight; level of A2B5 relative to the other retinoids [2]: higher levels
